Source: patent publication US12414924B2 (Duke University, priority 2016, dated 2025)
Substitutions are numbered along the chain they refer to. Read-outs that look alike come from different tables or passages of the source.

Experiments:
ERα LBD mutant Y537C [1] = biological target: T1, ERα LBD mutant Y537C (Homo sapiens, UniProt P03372, Y537C); test: ERE-luciferase reporter gene assay in SKBR3 cells, Y537C mutant receptor; format: cell-based; details: SKBR3, in presence of 1 nM 17-β estradiol, 24 h
T1 construct: expressed in transfected cells; host or cells: Caov2 ovarian carcinoma cells; SKBR3 breast adenocarcinoma cells
T1 sequence (P03372 1-595 Y537C): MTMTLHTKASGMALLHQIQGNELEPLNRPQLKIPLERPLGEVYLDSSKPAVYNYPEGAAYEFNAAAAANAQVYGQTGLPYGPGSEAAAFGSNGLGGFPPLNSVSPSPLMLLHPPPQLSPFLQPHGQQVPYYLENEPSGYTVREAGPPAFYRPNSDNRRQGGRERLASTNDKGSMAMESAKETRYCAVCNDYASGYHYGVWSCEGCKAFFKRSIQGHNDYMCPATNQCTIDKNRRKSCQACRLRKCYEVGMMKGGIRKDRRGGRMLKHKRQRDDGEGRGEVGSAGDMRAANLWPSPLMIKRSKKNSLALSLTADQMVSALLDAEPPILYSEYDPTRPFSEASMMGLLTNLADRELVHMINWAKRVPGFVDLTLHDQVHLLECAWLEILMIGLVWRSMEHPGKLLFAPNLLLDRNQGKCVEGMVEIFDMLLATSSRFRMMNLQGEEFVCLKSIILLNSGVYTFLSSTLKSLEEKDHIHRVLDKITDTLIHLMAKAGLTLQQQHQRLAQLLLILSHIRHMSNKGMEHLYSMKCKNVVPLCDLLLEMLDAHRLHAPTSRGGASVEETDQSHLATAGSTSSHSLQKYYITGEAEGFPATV
Experimental: (§1) ExSite mutagenesis was performed using the corresponding primers as summarized in Table 1 below on a pENTR2B ERα WT construct using Pfu ultra taq polymerase. The primers were PNK phosphorylated. Following PCR amplification, the products were digested with DpnI at 37° C. for 1 hr, followed by overnight ligation at 16° C. Ligated products were transformed into DH5α bacterial cells and grown on kanamycin resistant plates. The pENTR clones were verified by sequencing and then swapped into the pcDNA-DEST vector using the Gateway system (Invitrogen) for expression analysis.
(§2) Caov2 ovarian carcinoma cells were grown in RPMI-1640 media (Gibco) supplemented with 8% Fetal Bovine Serum (FBS), Sodium Pyruvate (NaPyr) and non-essential amino acids (NEAA) and passaged every 2-3 days. SKBR3 breast adenocarcinoma cells were grown in DMEM media (Gibco) supplemented with 8% Fetal Bovine Serum (FBS), Sodium Pyruvate (NaPyr) and non-essential amino acids (NEAA) and passaged every 2-3 days. Cells were switched into a phenol-red free RPMI-1640 media supplemented with 8% charcoal stripped fetal bovine serum (CFS), NaPyr, and NEAA one day before plating for experiment. Cells were then plated in 96-well plates for experiment in the phenol red-free media an additional day before transfection.
(§3) The plots include data from five independent experiments and each value is an average of triplicates from each experiment. […]

wild-type (WT) ERα [2] = biological target: T2, wild-type (WT) ERα (Homo sapiens, UniProt P03372); test: ERE-luciferase reporter gene assay in SKBR3 cells, wild-type receptor; format: cell-based; details: SKBR3, in presence of 1 nM 17-β estradiol, 24 h
T2 construct: expressed in transfected cells; host or cells: Caov2 ovarian carcinoma cells; SKBR3 breast adenocarcinoma cells
T2 sequence (P03372 1-595): T1 sequence (P03372 1-595 Y537C) with C537Y
Experimental: as §1, §2, §3

[3] = PEARL trial, cited from earlier work
[4] = Reported Cmax in blood at doses used in prior clinical trials; format: in vivo; details: human, read-out: Converted (M) Cmax
Text: See Maximov et al., Current ClinicalPharmacology 8(2): 135-155 (2013). […] See Assessment Report for Fablyn, 2009 (EMA). […] See Gardner et al., J Clin Pharmacol 46(1): 52-58 (2006).

ERα LBD mutant Y537N = biological target: T3, ERα LBD mutant Y537N (Homo sapiens, UniProt P03372, Y537N); test: ERE-luciferase reporter gene assay in Caov2 cells, Y537N mutant receptor; format: cell-based; details: Caov2, in presence of 1 nM 17-β estradiol, 24 h
T3 construct: expressed in transfected cells; host or cells: Caov2 ovarian carcinoma cells; SKBR3 breast adenocarcinoma cells
T3 sequence (P03372 1-595 Y537N): T1 sequence (P03372 1-595 Y537C) with C537N
Experimental: as §1, §2, §3

wild-type (WT) ERα [5] = biological target: T2, wild-type (WT) ERα; test: ERE-luciferase reporter gene assay in Caov2 cells, wild-type receptor; format: cell-based; details: Caov2, in presence of 1 nM 17-β estradiol, 24 h
Experimental: as §1, §2, §3

ERα LBD mutant Y537C [6] = biological target: T1, ERα LBD mutant Y537C; test: ERE-luciferase reporter gene assay in Caov2 cells, Y537C mutant receptor; format: cell-based; details: Caov2, in presence of 1 nM 17-β estradiol, 24 h
Experimental: as §1, §2, §3

IC90 (ERα LBD mutant Y537C [1]): 5900 pM | IC90 (wild-type (WT) ERα [2]): 3300 pM | Cmax ([4]; 0.5 mg dose): 9e-09 M | Cmax ([4]; 1 mg dose): 1.55e-08 M | IC90 (ERα LBD mutant Y537N): 745 pM | IC90 (wild-type (WT) ERα [5]): 6.68 pM | IC90 (ERα LBD mutant Y537C [6]): 204 pM
Structure (SMILES): Oc1ccc2c(c1)CC[C@H](c1ccccc1)[C@@H]2c1ccc(OCCN2CCCC2)cc1 [Lasofoxifene]
risk of osteoporosis ([3]; placebo-controlled): reduce the risk of osteoporosis | risk of breast cancer ([3]; post-menopausal women with osteoporosis): reduced the risk of breast cancer in post-menopausal women with osteoporosis
